In ChEMBL document CHEMBL4411258, “Novel natural compounds from endophytic fungi with anticancer activity” (Eur J Med Chem, 2018):
In brackets after ≈: the same amount, converted by molar mass. Positions of bridges follow the written chain, without caps; N, C: chain ends. Residues, ends and D or L forms follow the SMILES beside them.

Tests used:
[1] = tested on: HepG2; experiment: Cytotoxicity against human HepG2 cells after 24 hrs by MTT assay; type: functional, cell-based; settings: HepG2, 24 h
[2] = tested on: MCF7; experiment: Cytotoxicity against human MCF7 cells after 24 hrs by MTT assay; type: functional, cell-based; settings: MCF7, 24 h
[3] = tested on: A549; experiment: Cytotoxicity against human A549 cells after 24 hrs by MTT assay; type: functional, cell-based; settings: A549, 24 h
[4] = tested on: KB; experiment: Cytotoxicity against human KB cells by resazurin microplate assay; type: functional, cell-based
[5] = tested on: NCI-H187; experiment: Cytotoxicity against human NCI-H187 cells by resazurin microplate assay; type: functional, cell-based
[6] = tested on: A2780S; experiment: Cytotoxicity against human A2780S cells after 72 hrs by CyQuant dye-based assay; type: functional, cell-based
[7] = tested on: A2780cisR; experiment: Cytotoxicity against human A2780cisR cells after 72 hrs by CyQuant dye-based assay; type: functional, cell-based
[8] = tested on: L5178Y; experiment: Cytotoxicity against mouse L5178Y cells by MTT assay; type: functional, cell-based
[9] = tested on: A2780; experiment: Cytotoxicity against human cisplatin-sensitive A2780 cells by MTT assay; type: functional, cell-based
[10] = tested on: U-251; experiment: Cytotoxicity against human U251 cells by MTT assay; type: functional, cell-based
[11] = tested on: PC-3; experiment: Cytotoxicity against human PC3 cells by MTT assay; type: functional, cell-based
[12] = tested on: HCT-15; experiment: Cytotoxicity against human HCT15 cells by MTT assay; type: functional, cell-based
[13] = tested on: MCF7; experiment: Cytotoxicity against human MCF7 cells by MTT assay; type: functional, cell-based
[14] = tested on: SK-LU-1; experiment: Cytotoxicity against human SKLU1 cells by MTT assay; type: functional, cell-based
[15] = tested on: HeLa; experiment: Cytotoxicity against human HeLa cells after 48 hrs by MTS assay; type: functional, cell-based
[16] = tested on: T-24; experiment: Cytotoxicity against human T24 cells after 48 hrs by MTS assay; type: functional, cell-based; settings: T-24, 48 h
[17] = tested on: A549; experiment: Cytotoxicity against human A549 cells after 48 hrs by MTS assay; type: functional, cell-based; settings: A549, 48 h
[18] = tested on: MCF7; experiment: Cytotoxicity against human MCF7 cells after 48 hrs by MTS assay; type: functional, cell-based; settings: MCF7, 48 h
[19] = tested on: MMQ; experiment: Cytotoxicity against rat MMQ cells by MTT assay; type: functional, cell-based
[20] = tested on: GH3; experiment: Cytotoxicity against rat GH3 cells by MTT assay; type: functional, cell-based
[21] = tested on: MCF7; experiment: Cytotoxicity against human MCF7 cells after 48 hrs by sulforhodamine B assay; type: functional, cell-based; settings: Homo sapiens, MCF7, 48 h
[22] = tested on: NCI-H460; experiment: Cytotoxicity against human NCI-H460 cells after 48 hrs by sulforhodamine B assay; type: functional, cell-based; settings: Homo sapiens, NCI-H460, 48 h
[23] = tested on: HCT-116; experiment: Cytotoxicity against human HCT116 cells after 48 hrs by sulforhodamine B assay; type: functional, cell-based; settings: HCT-116, 48 h
[24] = tested on: SW480; experiment: Cytotoxicity against human SW480 cells by MTT assay; type: functional, cell-based
[25] = tested on: A2780cisR; experiment: Cytotoxicity against human A2780cisR cells after 72 hrs by MTT assay; type: functional, cell-based
[26] = tested on: A2780; experiment: Cytotoxicity against human A2780 cells after 72 hrs by MTT assay; type: functional, cell-based; settings: A2780, 72 h
[27] = tested on: MCF7; experiment: Cytotoxicity against human MCF7 cells after 72 hrs by MTT assay; type: functional, cell-based; settings: MCF7, 72 h
[28] = tested on: MDA-MB-231; experiment: Cytotoxicity against human MDA-MB-231 cells after 72 hrs by MTT assay; type: functional, cell-based; settings: MDA-MB-231, 72 h
[29] = tested on: Caco-2; experiment: Cytotoxicity against human Caco2 cells after 72 hrs by MTT assay; type: functional, cell-based; settings: Caco-2, 72 h
[30] = tested on: A549; experiment: Cytotoxicity against human A549 cells by MTS assay; type: functional, cell-based
[31] = tested on: MDA-MB-231; experiment: Cytotoxicity against human MDA-MB-231 cells by MTS assay; type: functional, cell-based
[32] = tested on: HepG2; experiment: Cytotoxicity against human HepG2 cells by MTS assay; type: functional, cell-based
[33] = tested on: HCT-116; experiment: Cytotoxicity against human HCT116 cells by MTS assay; type: functional, cell-based
[34] = tested on: THP-1; experiment: Cytotoxicity against human THP1 cells by MTS assay; type: functional, cell-based
[35] = tested on: HL-60; experiment: Cytotoxicity against human HL60 cells after 48 hrs by MTT assay; type: functional, cell-based; settings: HL-60, 48 h
[36] = tested on: HeLa; experiment: Cytotoxicity against human HeLa cells; type: functional, cell-based
[37] = tested on: A549; experiment: Cytotoxicity against human A549 cells; type: functional, cell-based
[38] = tested on: HCT-116; experiment: Cytotoxicity against human HCT116 cells; type: functional, cell-based
[39] = Cytotoxicity against human KATO III cells after 72 hrs by MTT assay; type: functional, cell-based
[40] = tested on: Vero; experiment: Cytotoxicity against African green monkey Vero cells by resazurin microplate assay; type: cell-based; settings: Chlorocebus sabaeus
[41] = tested on: MCF7; experiment: Cytotoxicity against human MCF7 cells by resazurin microplate assay; type: functional, cell-based
[42] = tested on: HL-60; experiment: Cytotoxicity against human HL60 cells; type: functional, cell-based

In the case of CC[C@H](C)[C@@H]1NC(=O)[C@@H]2CSSC[C@H](NC(=O)[C@H](CC(C)C)NC(=O)[C@H](C(C)C)NC1=O)C(=O)N2 (cyclo(CCIVL); disulfide 1-2), the IC50 [1] is reported as 36 µM, the IC50 [2] is reported as 650 nM and the IC50 [3] is reported as 2420 nM.
COc1cc2oc(C)cc(=O)c2c(O)c1CC(C)c1ccco1 (stereo not drawn) showed an IC50 [4] of 43 µg/mL (≈ 137 µM) and an IC50 [5] of 18 µg/mL (≈ 57.3 µM).
For CCCCC/C=C/C1=C(CO)C(=O)[C@H]2O[C@@]2(C/C=C(\C)C(=O)O)C1=O, the IC50 [6] was 3.3 µM and the IC50 [7] was 5.1 µM.
For C=C1[C@@H](C)[C@H]2[C@H](Cc3ccc(O)cc3)NC(=O)[C@]23[C@H](O)/C=C/[C@@H](C)C[C@@H](C)C/C=C/[C@H]3[C@@H]1O, the IC50 [8] was 2550 nM and the IC50 [9] was 6.97 µM.
For COC(=O)[C@@]12Oc3c(c(O)cc4c3[C@@H]3CC[C@]5(C4)C(=C(O)c4c(O)cc(C)cc4[C@@H]5O)C3=O)C(=O)C1=C(O)C=C[C@H]2O, the IC50 [10] was 5.32 µM, the IC50 [11] was 8.62 µM and the IC50 [12] was 10.3 µM. For the same compound, the IC50 [13] was 7.93 µM and the IC50 [14] was 1160 nM.
With COC(=O)c1cc(OC)cc(O)c1C(=O)c1c(O)cc(C)c2c1O[C@@](C)(CC(=O)[C@@]13C[C@H](O)[C@@H]4O[C@]4(CC=C(C)C)[C@@H]1O3)C2 the IC50 [15] was 44.3 µM, the IC50 [16] was 39.3 µM and the IC50 [17] was 35.3 µM. For the same compound, the IC50 [18] was 38.3 µM.
Compound Cc1cc(O)cc2c1Oc1c(Cc3ccc(O)cc3)c(O)cc(C)c1C(=O)O2 has an IC50 [19] of 3.09 µM and an IC50 [20] of 3.64 µM.
In the case of C/C=C/[C@@H]1OC(=O)C2=C[C@H](O)[C@@H](/C=C/C)O[C@H]21, the IC50 [21] is reported as 22.5 µM, the IC50 [22] is reported as 1000 nM and the IC50 [23] is reported as 6.2 µM.
CC1=C(C=O)[C@@]2(C)CCCC(C)(C)[C@@H]2C[C@@H]1O gave an IC50 [24] of 8.72 µM.
With O=C1N2[C@H]3C(=CC=C[C@@H]3O)C[C@]23SS[C@]12C[C@H]1[C@@H]([C@@H](O)C=C[C@@H]1O)N2C3=O the IC50 [25] was 661 nM and the IC50 [26] was 664 nM.
Compound OCC(O)C(O)C(O)C(O)C(O)O[C@H]1[C@H](O)[C@@H](O)[C@H](O)O[C@@H]1CO (stereo partly drawn) has an EC50 [27] of 97.6 µM, an EC50 [28] of 92.4 µM and an EC50 [29] of 99.4 µM.
CCOC(=O)c1c(O)cc(O)cc1CCCCCCCC(C)O (stereo not drawn) gave an IC50 [30] of 13.3 µM, an IC50 [31] of 10.1 µM and an IC50 [32] of 12.5 µM. For the same compound, the IC50 [33] was 11.9 µM and the IC50 [34] was 39.7 µM.
COc1ccc(O)c2c(=O)oc3cc(O)cc(C)c3c12 showed an IC50 [35] of 85 µM.
Work on COC(=O)CC[C@@H](C(=O)OC/C=C(\C)CC/C=C(\C)CCC=C(C)C)N1Cc2c(cc(O)c(OC/C=C(\C)CC/C=C(\C)CCC=C(C)C)c2O)C1=O yielded an IC50 [36] of 4.77 µM, an IC50 [37] of 12 µM and an IC50 [38] of 33 µM.
In the case of C[C@H]1[C@@H](/C=C2\C=CC(=O)O2)[C@H]2C=CC=C[C@@H]1O2, the IC50 [39] is reported as 1.95 to 40.2 µg/mL (≈ 8.47 to 174 µM), the IC50 [5] is reported as 1.95 to 40.2 µg/mL (≈ 8.47 to 174 µM) and the IC50 [40] is reported as 1.95 to 40.2 µg/mL (≈ 8.47 to 174 µM). The IC50 [41] was 1.95 to 40.2 µg/mL (≈ 8.47 to 174 µM).
COc1cc2c(c3c1Cc1c(cc(O)c(CO)c1C(=O)O)O3)C[C@H]1[C@H](C)CO[C@@]1(C)O2 gave an IC50 [42] of 12.4 µM.
